Results from patent US8425880B1, “Metal-containing materials for treatment of bacterial conditions” (priority 2007, dated 2013).
Where “and” joins values, the source holds several entries; their conditions need not be identical. Equal values may be shown once.

How the values were obtained:
C. perfringens = type: cell-based, Clostridium perfringens
C. difficile = type: cell-based, Clostridium difficile; settings: for Microdilution MIC: pH 4
[1] = system: C. difficile spores (strain ATCC 43596); assay: Sporicidal assay; type: cell-based, Clostridium difficile; parameters: key to growth after 5-6 days of subculture: presence (+) or absence (−) of growth after 5-6 days of subculture; presence (+) or absence (−) of growth after 5-6 days of subculture
Procedure: Louis, Mo.). […] Silver preparations were filtered at 0.2 microns and stored in the dark at room temperature. Spore germination was induced as previously described in, for example, […] and Sonenshein A L. Mol Microbiol. 2003 48(3): 811-821; and Ionesco H. C R Acad Sci Hebd […]. 25; 287(6):659-61. C. difficile suspended in BHI was heat-killed at 80° C. for 10 minutes, and germination then stimulated by a 30-min incubation at 50° C. in the presence of 165 μM thioglycollate, followed by a 15-min incubation at 37° C. in the presence of 4 mg/ml lysozyme.

## O=[N+]([O-])[O-].[Ag+] [AgNO3, Silver nitrate]
C. perfringens
  MIC: 92 ppm (μg/ml)
C. difficile
  MIC: 18 (8-23) ppm (μg/ml)
  Microdilution MIC: 18 ppm and 9 ppm
[1]
  inactivation of C. difficile spores: inactivated the spores of C. difficile
[1]; Expt 2, Conc. 0.00005%
  growth after 5-6 days of subculture: +
[1]; Expt 2, Conc. 0.0005%
  growth after 5-6 days of subculture: −
[1]; Expt 2, Conc. 0.005%
  growth after 5-6 days of subculture: −
[1]; Expt 2, Conc. 0.05%
  growth after 5-6 days of subculture: −
[1]; Expt 3, Conc. 0.01%
  growth after 5-6 days of subculture: −
[1]; Expt 3, Conc. 0.03%
  growth after 5-6 days of subculture: −

## silver (I) oxide [Ag2O]
C. difficile
  Microdilution MIC: 16 ppm and 31 ppm
[1]
  inactivation of C. difficile spores: inactivated the spores of C. difficile
[1]; Expt 3, Conc. 0.01%
  growth after 5-6 days of subculture: −
[1]; Expt 3, Conc. 0.03%
  growth after 5-6 days of subculture: −

## O=CCCCC=O [Glutaraldehyde, glutaraldehyde]
[1]; Expt 1, Conc. 0.02%
  growth after 5-6 days of subculture: +
[1]; Expt 1, Conc. 0.2%
  growth after 5-6 days of subculture: −
[1]; Expt 1, Conc. 2%
  growth after 5-6 days of subculture: −
